According to DBAASP:
In brackets after ≈: the same amount, converted by molar mass.

Columns and labels:
Assay in all cases: ≥ marks a high value that may be exact or a test limit, other limits are often not marked, values filed in µg/mL are converted to µM
[1] = test system: Escherichia coli IFO 12734
[2] = test system: Staphylococcus aureus IFO 12732
[3] = test system: Bacillus subtilis IFO 3513
[4] = test system: Enterococcus faecalis ATCC 29212
Candida albicans = test system: Candida albicans
[5] = test system: Staphylococcus epidermidis
[6] = test system: Salmonella enterica serovar Typhimurium
[7] = test system: Staphylococcus aureus ATCC 25923
[8] = test system: Pseudomonas aeruginosa H103
Escherichia coli UB1005 = test system: Escherichia coli UB1005
[9] = test system: Staphylococcus aureus ATCC 6538
[10] = test system: Escherichia coli ATCC 11219
[11] = test system: Klebsiella pneumoniae ATCC 10031
[12] = test system: Pseudomonas aeruginosa ATCC 13388
[13] = test system: Salmonella enterica subsp. enterica serovar Typhimurium ATCC 14028

| SMILES | MIC [1] | MIC [2] | MIC [3] | MIC [9] | MIC [10] | MIC [11] | MIC [12] | MIC [13] | also measured |
| --- | --- | --- | --- | --- | --- | --- | --- | --- | --- |
| CC[C@H](C)[C@H](N)C(=O)N[C@@H](CC(C)C)C(=O)N1CCC[C@H]1C(=O)N[C@@H](Cc1c[nH]c2ccccc12)C(=O)N[C@@H](CCCCN)C(=O)N[C@@H](Cc1c[nH]c2ccccc12)C(=O)N1CCC[C@H]1C(=O)N[C@@H](Cc1c[nH]c2ccccc12)C(=O)N[C@@H](CC(C)C)C(=O)N1CCC[C@H]1C(=O)N[C@@H](Cc1c[nH]c2ccccc12)C(=O)N[C@@H](CCCCN)C(=O)N[C@@H](CCCCN)C(N)=O [ILPWKWPWLPWKK] | 28.1 µM (≈ 50 µg/mL) | 1.76 µM (≈ 3.13 µg/mL) | 1.76 µM (≈ 3.13 µg/mL) | – | – | – | – | – | – |
| CC[C@H](C)[C@H](NC(=O)[C@H](CCCCN)NC(=O)[C@@H](NC(=O)[C@@H](NC(=O)[C@H](CCCN=C(N)N)NC(=O)[C@H](C)NC(=O)[C@H](CC(C)C)NC(=O)[C@@H](N)CCCN=C(N)N)[C@@H](C)CC)C(C)C)C(=O)N[C@@H](CCCN=C(N)N)C(=O)N[C@H](C(=O)N[C@@H](C)C(=O)N[C@@H](CCCN=C(N)N)C(N)=O)C(C)C [RLARIVKIRVAR] | – | – | – | – | – | – | – | – | MIC [4]: 86.2 µM (≈ 125 µg/mL); MIC (Candida albicans): 21.4 µM (≈ 31 µg/mL); MIC [5]: 21.4 µM (≈ 31 µg/mL); MIC [6]: ≥ 43.4 µM; MIC [7]: 86.2 µM (≈ 125 µg/mL); MIC [8]: 21.4 µM (≈ 31 µg/mL); MIC (Escherichia coli UB1005): 11 µM (≈ 16 µg/mL) |
| CC[C@H](C)[C@H](N)C(=O)N[C@@H](CC(C)C)C(=O)N1CCC[C@H]1C(=O)N[C@@H](CC(C)C)C(=O)N[C@@H](CCCCN)C(=O)N[C@@H](CC(C)C)C(=O)N1CCC[C@H]1C(=O)N[C@@H](Cc1c[nH]c2ccccc12)C(=O)N[C@@H](Cc1c[nH]c2ccccc12)C(=O)N1CCC[C@H]1C(=O)N[C@@H](Cc1c[nH]c2ccccc12)C(=O)N[C@@H](CCCN=C(N)N)C(=O)N[C@@H](CCCN=C(N)N)C(N)=O [ILPLKLPWWPWRR] | 28.4 µM (≈ 50 µg/mL) | 1.78 µM (≈ 3.13 µg/mL) | 1.78 µM (≈ 3.13 µg/mL) | – | – | – | – | – | – |
| CC[C@H](C)[C@H](NC(=O)CN)C(=O)N[C@@H](Cc1cnc[nH]1)C(=O)N[C@@H](CC(=O)O)C(=O)N[C@H](C(=O)N[C@@H](CC(C)C)C(=O)N[C@@H](CCCCN)C(=O)N[C@@H](C)C(=O)NCC(=O)N[C@@H](CCCCN)C(=O)N1CCC[C@H]1C(=O)N[C@@H](CO)C(N)=O)[C@@H](C)CC [GIHDILKAGKPS] | – | – | – | 10 µM (≈ 12.3 µg/mL) | 20 µM (≈ 24.7 µg/mL) | 20 µM (≈ 24.7 µg/mL) | ≥ 50 µM | > 50 µM | – |
| CC[C@H](C)[C@H](N)C(=O)N[C@@H](CC(C)C)C(=O)N1CCC[C@H]1C(=O)N[C@@H](Cc1c[nH]c2ccccc12)C(=O)N[C@@H](CCCCN)C(=O)N[C@@H](Cc1c[nH]c2ccccc12)C(=O)N1CCC[C@H]1C(=O)N[C@@H](Cc1ccc(O)cc1)C(=O)N[C@@H](CC(C)C)C(=O)N1CCC[C@H]1C(=O)N[C@@H](Cc1c[nH]c2ccccc12)C(=O)N[C@@H](CCCN=C(N)N)C(=O)N[C@@H](CCCN=C(N)N)C(N)=O [ILPWKWPYLPWRR] | 13.8 µM (≈ 25 µg/mL) | 3.45 µM (≈ 6.25 µg/mL) | 1.73 µM (≈ 3.13 µg/mL) | – | – | – | – | – | – |
| CC[C@H](C)[C@H](NC(=O)CN)C(=O)N[C@@H](CCCN=C(N)N)C(=O)N[C@@H](CCCN=C(N)N)C(=O)N[C@H](C(=O)N[C@@H](CC(C)C)C(=O)N[C@@H](CCCN=C(N)N)C(=O)N[C@@H](Cc1ccc(O)cc1)C(=O)NCC(=O)N[C@@H](CCCN=C(N)N)C(=O)N1CCC[C@H]1C(=O)N[C@@H](CO)C(N)=O)[C@@H](C)CC [GIRRILRYGRPS] | – | – | – | 5 µM (≈ 7.21 µg/mL) | 4 µM (≈ 5.77 µg/mL) | 10 µM (≈ 14.4 µg/mL) | 10 µM (≈ 14.4 µg/mL) | 10 µM (≈ 14.4 µg/mL) | – |
